The values that follow come from article PMC4872749, “EM23, a natural sesquiterpene lactone, targets thioredoxin reductase to activate JNK and cell death pathways in human cervical cancer cells” (Oncotarget, 2016).

Molecules are shown by their SMILES.

In the assay the target is T1, thioredoxin reductase (TrxR) (Sus scrofa, UniProt Q9MYY8).
T1 construct: gene TXNRD1; TrxR purified from porcine brains
T1 sequence (Q9MYY8 1-499): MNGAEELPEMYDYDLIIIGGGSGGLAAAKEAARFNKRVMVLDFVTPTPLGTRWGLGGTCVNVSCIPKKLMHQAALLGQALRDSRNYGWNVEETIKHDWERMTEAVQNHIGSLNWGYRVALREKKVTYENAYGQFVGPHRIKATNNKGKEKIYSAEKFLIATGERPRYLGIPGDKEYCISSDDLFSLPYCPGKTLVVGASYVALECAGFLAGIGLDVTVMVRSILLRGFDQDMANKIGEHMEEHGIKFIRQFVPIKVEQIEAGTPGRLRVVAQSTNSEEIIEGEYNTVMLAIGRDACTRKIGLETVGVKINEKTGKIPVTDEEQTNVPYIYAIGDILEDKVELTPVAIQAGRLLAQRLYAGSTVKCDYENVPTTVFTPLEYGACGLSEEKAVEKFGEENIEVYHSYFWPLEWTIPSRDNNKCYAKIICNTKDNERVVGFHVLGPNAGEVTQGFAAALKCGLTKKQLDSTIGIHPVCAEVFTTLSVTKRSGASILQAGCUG
Kind of assay: DTNB reduction assay with purified NADPH-reduced TrxR; supported by BIAM labeling and TOF LC/MS of C-terminal tetrapeptide adduct. The format is biochemical.

As usually defined, the IC50 is the point on the concentration scale where inhibition reaches its midpoint. Low values mean greater potency, high ones weaker potency. `C=C(C)C(=O)OC1CC(C)=CC2(OC)C=C(C)C(O2)C2OC(=O)C(=C)C12` (stereo not shown) [EM23] displayed a half-maximal inhibitory concentration (IC50) of 7.8 µM.
